Data on 41 compounds can be found in the NIST ThermoML archive (doi:10.1021/je060033f).

± gives the expanded uncertainty stated by the source.

This data set is described as follows: activity coefficient (dimensionless); of the first substance listed, at infinite dilution; xn = mol fraction of the nth substance listed. To be noted: 323.15 K; 101 kPa; Liquid; Chromatography; x1 = 0.
For the compound `C1CCCCC1` [cyclohexane] + C=CC[n+]1ccn(CCCCCCCC)c1.[Br-], the activity coefficient turned out to be 5.66 ± 0.39. The value for `Cc1cccc(C)c1` [1,3-dimethylbenzene] + C=CC[n+]1ccn(CCCCCCCC)c1.[Br-] was 2.73 ± 0.19; that for `C#CCCCC` [1-hexyne] + C=CCn1cc[n+](C)c1.[Br-] was 8.27 ± 0.56. Regarding `c1ccsc1` [thiophene] + CCCCCCCCCC[n+]1ccn(CCCB(O)O)c1.[Br-], the activity coefficient was determined as 0.79 ± 0.05. The value for `CCCC(C)=O` [pentan-2-one] + C=CC[n+]1ccn(CCCCCCCCCC)c1.[Br-] was 1.78 ± 0.12. The value for `CCCCCCCC` [octane] + CCCCCCCCCC[n+]1ccn(CCCB(O)O)c1.[Br-] was 8.81 ± 0.6. Take `CC(C)O` [propan-2-ol] + C=CC[n+]1ccn(CCCCCCCC)c1.[Br-]: the activity coefficient is 0.36 ± 0.03.

With `CCCC(C)=O` [pentan-2-one] + CCCCCCCC[n+]1ccn(CCCB(O)O)c1.[Br-], the activity coefficient stood at 2.32 ± 0.16. The value for `C1COCCO1` [1,4-dioxane] + CCCCCCCC[n+]1ccn(CCCB(O)O)c1.[Br-] was 1.78 ± 0.12; that for `CCCC(C)=O` [pentan-2-one] + C[n+]1ccn(CCCB(O)O)c1.[Br-] was 24.2 ± 1.7; that for `CCC[N+](=O)[O-]` [1-nitropropane] + CCCCCCCCCCCC[n+]1ccn(CCCB(O)O)c1.[Br-] was 1.51 ± 0.1.

For the compound `CCCC(C)=O` [pentan-2-one] + CCCCCCCCCCCC[n+]1ccn(CCCB(O)O)c1.[Br-], the activity coefficient worked out at 1.63 ± 0.11. With `ClCCl` [dichloromethane] + C=CC[n+]1ccn(CCCCCCCCCCCC)c1.[Br-], the activity coefficient worked out at 0.25 ± 0.03.

Regarding `ClC(Cl)(Cl)Cl` [tetrachloromethane] + CCCCCCCCCC[n+]1ccn(CCCB(O)O)c1.[Br-], the activity coefficient stood at 0.79 ± 0.05.

Take `CCOCC` [diethyl ether] + C=CC[n+]1ccn(CCCCCCCCCCCC)c1.[Br-]: the activity coefficient was determined as 2.95 ± 0.2. Turning to `CCc1ccccc1` [ethylbenzene] + C=CC[n+]1ccn(CCCCCCCCCCCC)c1.[Br-], the activity coefficient was found to be 1.77 ± 0.12. As for `ClCCl` [dichloromethane] + C=CCn1cc[n+](C)c1.[Br-], the activity coefficient came out at 0.33 ± 0.03. Then `CCC[N+](=O)[O-]` [1-nitropropane] + C=CCn1cc[n+](C)c1.[Br-], with 1.83 ± 0.12; and `CCCCCCCCC` [nonane] + C=CC[n+]1ccn(CCCCCCCC)c1.[Br-], with 17.4 ± 1.2; and `c1ccccc1` [benzene] + CCCCCCCCCC[n+]1ccn(CCCB(O)O)c1.[Br-], with 1.33 ± 0.09. In the case of `CC(C)CO` [2-methyl-1-propanol] + C=CC[n+]1ccn(CCCCCCCCCCCC)c1.[Br-], the activity coefficient was 0.23 ± 0.03. Then `ClC(Cl)Cl` [trichloromethane] + CCCCCCCCCC[n+]1ccn(CCCB(O)O)c1.[Br-], with 0.12 ± 0.03. Consider `CCOCC` [diethyl ether] + C=CC[n+]1ccn(CCCCCCCCCC)c1.[Br-], for which the activity coefficient amounted to 3.54 ± 0.24. The value for `ClCCl` [dichloromethane] + CCCCCCCCCC[n+]1ccn(CCCB(O)O)c1.[Br-] was 0.25 ± 0.03; that for `Cc1cccc(C)c1` [1,3-dimethylbenzene] + C[n+]1ccn(CCCB(O)O)c1.[Br-] was 48.1 ± 3.3; that for `Cc1ccccc1C` [1,2-dimethylbenzene] + C=CC[n+]1ccn(CCCCCCCCCCCC)c1.[Br-] was 1.66 ± 0.11. As for `Cc1ccccc1` [toluene] + C=CC[n+]1ccn(CCCCCCCC)c1.[Br-], the activity coefficient was found to be 1.92 ± 0.13. With `CC#N` [acetonitrile] + CCCCCCCC[n+]1ccn(CCCB(O)O)c1.[Br-], the activity coefficient was 1.28 ± 0.08. `CC(C)O` [propan-2-ol] + C=CC[n+]1ccn(CCCCCCCCCC)c1.[Br-]: the activity coefficient amounted to 0.35 ± 0.03.

With `CCCCCCCC` [octane] + CCCCCCCC[n+]1ccn(CCCB(O)O)c1.[Br-], the activity coefficient is 23.6 ± 1.6.

As to `ClC(Cl)(Cl)Cl` [tetrachloromethane] + C=CC[n+]1ccn(CCCCCCCCCCCC)c1.[Br-], the activity coefficient is 0.7 ± 0.05. The value for `CCCO` [propan-1-ol] + C=CC[n+]1ccn(CCCCCCCCCC)c1.[Br-] was 0.28 ± 0.03; that for `CCCCCC` [hexane] + CCCCCCCCCC[n+]1ccn(CCCB(O)O)c1.[Br-] was 5.45 ± 0.37. Then `CCCCCCC` [heptane] + CCCCCCCCCCCC[n+]1ccn(CCCB(O)O)c1.[Br-], with 5.36 ± 0.37; and `CC#N` [acetonitrile] + C[n+]1ccn(CCCB(O)O)c1.[Br-], with 3.3 ± 0.22; and `CCC(C)=O` [butanone] + CCCCCCCC[n+]1ccn(CCCB(O)O)c1.[Br-], with 1.88 ± 0.13.

Turning to `c1ccccc1` [benzene] + C=CC[n+]1ccn(CCCCCCCC)c1.[Br-], the activity coefficient is 1.4 ± 0.09. Then `ClCCl` [dichloromethane] + C[n+]1ccn(CCCB(O)O)c1.[Br-], with 3.2 ± 0.22; and `ClC(Cl)(Cl)Cl` [tetrachloromethane] + C[n+]1ccn(CCCB(O)O)c1.[Br-], with 21.2 ± 1.4; and `C#CCCCCC` [1-heptyne] + CCCCCCCCCCCC[n+]1ccn(CCCB(O)O)c1.[Br-], with 2.2 ± 0.15. For the compound `CCc1ccccc1` [ethylbenzene] + CCCCCCCCCCCC[n+]1ccn(CCCB(O)O)c1.[Br-], the activity coefficient stood at 3.83 ± 0.26.
